Data published in ChEMBL document CHEMBL2074327, “hPepT1-mediated epithelial transport of bacteria-derived chemotactic peptides enhances neutrophil-epithelial interactions” (J Clin Invest, 1998).
Blank lines part the entries; values can stand above or below the compound they belong to. Peptide text beside a SMILES is read from it.

Key:
Format in all cases: functional, cell-based
[1] = target: T1, Solute carrier family 15 member 1 (Homo sapiens) (UniProt P46059); experiment: TP_TRANSPORTER: inhibition of Gly-Sar uptake (Gly-Sar: 100 uM, fMLP: 1000 uM) in Xenopus laevis oocytes; conditions: Oocyte
T1 sequence (whole entry): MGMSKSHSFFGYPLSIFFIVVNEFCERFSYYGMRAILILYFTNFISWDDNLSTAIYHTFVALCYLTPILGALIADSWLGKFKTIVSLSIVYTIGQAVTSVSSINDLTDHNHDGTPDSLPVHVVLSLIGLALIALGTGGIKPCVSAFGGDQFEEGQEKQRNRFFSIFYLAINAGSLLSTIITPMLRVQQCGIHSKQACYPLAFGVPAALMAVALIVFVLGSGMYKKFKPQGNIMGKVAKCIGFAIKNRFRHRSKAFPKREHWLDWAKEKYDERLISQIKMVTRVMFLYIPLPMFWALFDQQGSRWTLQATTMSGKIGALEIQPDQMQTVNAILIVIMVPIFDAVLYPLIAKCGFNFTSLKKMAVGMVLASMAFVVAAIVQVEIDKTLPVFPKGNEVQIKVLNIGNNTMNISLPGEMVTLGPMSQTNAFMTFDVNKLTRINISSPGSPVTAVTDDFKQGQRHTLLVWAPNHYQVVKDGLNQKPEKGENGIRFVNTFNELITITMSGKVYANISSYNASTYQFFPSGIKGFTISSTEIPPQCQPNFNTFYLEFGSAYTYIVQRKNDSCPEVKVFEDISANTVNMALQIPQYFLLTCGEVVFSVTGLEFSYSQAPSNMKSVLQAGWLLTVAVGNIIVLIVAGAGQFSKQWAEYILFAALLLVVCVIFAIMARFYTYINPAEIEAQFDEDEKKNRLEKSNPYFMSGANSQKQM

[2] = target: T1, Solute carrier family 15 member 1 (Homo sapiens); experiment: TP_TRANSPORTER: uptake in Xenopus laevis oocytes; conditions: Oocyte
[3] = target: T1, Solute carrier family 15 member 1 (Homo sapiens); experiment: TP_TRANSPORTER: inhibition of fMLP uptake (fMLP: 0.1 uM, Gly-Pro: 10000 uM) in Caco-2 cells
[4] = target: T1, Solute carrier family 15 member 1 (Homo sapiens); experiment: TP_TRANSPORTER: inhibition of fMLP uptake (fMLP: 0.1 uM, Gly-Leu: 10000 uM) in Caco-2 cells
[5] = target: T1, Solute carrier family 15 member 1 (Homo sapiens); experiment: TP_TRANSPORTER: inhibition of fMLP uptake (fMLP: 0.12 uM, Gly-Leu: 10000 uM) in Xenopus laevis oocytes; conditions: Oocyte
[6] = target: T1, Solute carrier family 15 member 1 (Homo sapiens); experiment: TP_TRANSPORTER: inhibition of fMLP uptake (fMLP: 0.1 uM, Carnosine: 10000 uM) in Caco-2 cells

- inhibition [1]: 88%
- Activity [2]: substrate [+]
Structure (SMILES): CSCC[C@H](NC=O)C(=O)N[C@@H](CC(C)C)C(=O)N[C@@H](Cc1ccccc1)C(=O)O

- inhibition [3]: 78%
Structure (SMILES): NCC(=O)N1CCC[C@H]1C(=O)O (H-Gly-Pro-OH)

- inhibition [4]: 93%
- Activity [5]: inhibitor [+]
Structure (SMILES): CC(C)C[C@H](NC(=O)CN)C(=O)O

- inhibition [6]: 93%
Structure (SMILES): NCCC(=O)N[C@@H](Cc1c[nH]cn1)C(=O)O
